A word on the pEC50: it is −log10 of the EC50, conventionally taken in molar units.

pEC50: −log10 of the molar value. A value given as a limit tells only on which side of the number the result lay.

In the first test the test system is genotype 1/2 chimeric cell culture derived HCV (HCVcc). Briefly: Genotype 1/2 chimeric HCVcc assay (nano-luciferase, HCV replication). Conditions: Hepatitis C virus. The test is classed as cell-based. A digest of the protocol: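 EC50 (replication, nano-luciferase) and CC50 (viability, cellular ATP) were determined by non-linear regression 72 h after infection with a reporter HCVcc chimera carrying genotype 1a structural and 2a JFH-1 non-structural proteins. Compound was applied to Huh-7.5 cells 2 h before inoculation.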
Compound `O=C(NCCCN1CCC(N2CCCCC2)CC1)c1ccc(-c2ccc(C(F)(F)F)cc2)s1` [Compound 1081] gave a pEC50 of 6.00 to 7.00.
On the same count and under the same terms, under `O=C(NCCCN1CCC(N2CCCCC2)CC1)c1ccc(-c2ccc(C(F)(F)F)cn2)cc1` [Compound 1100] stands 6.00 to 7.00; under `O=C(Nc1cccc(CN2CCC(N3CCCCC3)CC2)c1)c1ccc(Oc2ccccc2)cc1` [Compound 1075], 6.00 to 7.00.
Compound `O=C(NCCC(=O)N1CCC(N2CCCCC2)CC1)c1ccc(Oc2ccccc2)cc1` [Compound 1053] had a pEC50 of 5.00 to 6.00.
In turn, `O=C(NCCCN1CCC(N2CCCCC2)CC1)c1ccc(-c2ccc(C(F)(F)F)cc2)c(Cl)c1` [Compound 1085] showed a pEC50 of 6.00 to 7.00.
The same measure, in the same setting: under `O=C(NCCCN1CCC(N2CCCCC2)CC1)c1ccc(-c2cccc(OC(F)(F)F)c2)cc1` [Compound 1145] stands 6.00 to 7.00; under `O=C(NCCCN1CCC(N2CCCC2)CC1)c1ccc(Oc2ccccc2)cc1` [Compound 1067], 6.00 to 7.00.
Still for that read-out and setting: in the case of `CC(C)(C)c1ccc(-c2ccc(C(=O)NCCCN3CCC(N4CCCCC4)CC3)cc2)cc1` [Compound 1124] it was 6.00 to 7.00; in that of `O=C(c1ccc(Oc2ccccc2)cc1)N1CCC(C(=O)N2CCC(N3CCCCC3)CC2)C1` (stereo not drawn) [Compound 1054], < 5.00.
Take `O=C(NCCCN1CCC(N2CCCCC2)CC1)c1ccc(N2CCOCC2)cc1` [Compound 1029]: the pEC50 is < 5.00.
`O=C(c1ccc(Oc2ccccc2)cc1)N1CCC(CN2CCC(N3CCCCC3)CC2)C1` (stereo not drawn) [Compound 1089] showed a pEC50 of 5.00 to 6.00.
On the same count and under the same terms, in the case of `O=C(NCCCN1CCC(N2CCCCC2)CC1)c1ccc(Oc2ccc(Br)cc2)cc1` [Compound 1034] it was 5.00 to 6.00; in that of `CN(C)C(=O)c1ccc(-c2ccc(C(=O)NCCCN3CCC(N4CCCCC4)CC3)cc2)cc1` [Compound 1120], < 5.00; in that of `O=C(Nc1cccc(N2CCC(N3CCCCC3)CC2)c1)c1ccc(Oc2ccccc2)cc1` [Compound 1049], 6.00 to 7.00.
In turn, `O=C(NCCCN1CCC(N2CCCCC2)CC1)c1cccc(Oc2cccc(C(F)(F)F)c2)c1` [Compound 1107] gave a pEC50 of 6.00 to 7.00.
The same measure, in the same setting: under `Cc1ccc(-c2ccc(C(=O)NCCCN3CCC(N4CCCCC4)CC3)cc2)c(F)c1` [Compound 1135] stands 6.00 to 7.00; under `NS(=O)(=O)c1ccc(-c2ccc(C(=O)NCCCN3CCC(N4CCCCC4)CC3)cc2)cc1` [Compound 1128], < 5.00.
Still for that read-out and setting: in the case of `O=C(NCCCN1CCC(N2CCCCC2)CC1)c1ccc(-c2ccccc2)cc1` [Compound 1005] it was 6.00 to 7.00; in that of `CN(CCCN1CCC(N2CCCCC2)CC1)C(=O)c1ccc(Oc2ccccc2)cc1` [Compound 1047], 5.00 to 6.00.
Same read-out and setting: in the case of `O=C(NCCCN1CCC(N2CCCCC2)CC1)c1ccc(Nc2ccccc2)cc1` [Compound 1070] it was 5.00 to 6.00.

The test is the same for the next values; noted with them: Hepatitis C virus, Huh7.5, 72 h.
The compound `COC(=O)c1c(NC(=O)NCc2c(-n3cccc3)sc3c2CCN(C)C3)sc2c1CCCC2` [Compound 155] had a pEC50 of 6.00 to 7.00.
The same measure, in the same setting: under `CCOC(=O)c1c(NC(=O)NCc2c(-n3cccc3)sc(CN(C)C)c2C)sc2c1CCCC2` [Compound 22] stands > 7.00; under `COc1sc(NC(=O)NCc2c(C(F)(F)F)sc3c2CCNC3)c(C(=O)OC(C)(C)C)c1C` [Compound 371], > 7.00.
Take `Cc1sc(NC(=O)NCc2c(-c3cccc(Cl)c3)sc3c2CCNC3)c(C(=O)OC(C)(C)C)c1C` [Compound 363]: the pEC50 was > 7.00.
The same measure, in the same setting: in the case of `CC(C)(C)OC(=O)c1c(NC(=O)NCc2c(-c3ccc(Cl)nc3)sc3c2CCNC3)sc2c1CCCC2` [Compound 307] it was > 7.00; in that of `CCOC(=O)c1c(NC(=O)c2cc3c(s2)CCCC3)sc2c1CCN(CC)C2` [Compound 17], 5.00 to 6.00.
For the compound `CCc1sc2c(c1CNC(=O)Nc1sc3c(c1C(=O)OC(C)(C)C)CCOC3)CCNC2` [Compound 333], the pEC50 was > 7.00.
Same read-out and setting: under `CC(C)(C)OC(=O)c1c(NC(=O)NCc2c(C(F)(F)F)sc3c2CCNC3)sc2c1CCC1(C2)OCCO1` [Compound 311] stands > 7.00.
Same read-out and setting: under `CCOC(=O)c1c(NC(=O)NCc2c(-n3cccc3)sc3c2CCN(Cc2ccccc2)C3)sc2c1CCCC2` [Compound 7] stands > 7.00; under `CC(C)(C)OC(=O)c1c(NC(=O)NCc2c(C(F)(F)F)sc3c2CCNC3)sc2c1CCCC2` [Compound 117], > 7.00; under `CC(C)(C)OC(=O)c1c(NC(=O)NCc2c(N3CCCC3)sc3c2CCNC3)sc2c1CCCC2` [Compound 143], > 7.00.
On to `Cc1sc(NC(=O)NCc2c(C(F)(F)F)sc3c2CCN(CCN(C)C)C3)c(C(=O)OC(C)(C)C)c1C` [Compound 367], for which the pEC50 is > 7.00.
The same measure, in the same setting: under `Cc1sc(NC(=O)NCc2c(Br)sc3c2CCNC3)c(C(=O)OC(C)C)c1C` [Compound 216] stands > 7.00.
As to `CCOC(=O)c1c(NC(=O)NCc2c(Br)sc3c2CCNC3)sc2c1CC(C)CC2C` (stereo not drawn) [Compound 207], the pEC50 is > 7.00.
Turning to `CN1CCc2c(sc(-n3cccc3)c2CNC(=O)Nc2sc3c(c2C(=O)OC(C)(C)C)CCC3)C1` [Compound 298], the pEC50 is > 7.00.
On the same count and under the same terms, under `CCOC(=O)c1c(NC(=O)NCc2c(-n3cccc3)sc3c2CCOC3)sc2c1CCCC2` [Compound 48] stands > 7.00; under `CCOC(=O)c1c(NC(=O)c2c(-n3cccc3)sc3c2CCN(CC)C3)sc2c1CCCC2` [Compound 23], 5.00 to 6.00; under `Cc1sc(NC(=O)NCc2c(Br)sc3c2CCN(C)C3)c(C(=O)OC(C)C)c1C` [Compound 297], > 7.00.
In the case of `CCOC(=O)c1c(NC(=O)NCc2ccsc2)sc2c1CCCC2` [Compound 3], the pEC50 was > 7.00.
`CCN1CCc2c(sc(-n3cccc3)c2CNC(=O)Nc2sc3c(c2C(=O)NCCCOC)CCCC3)C1` [Compound 79] showed a pEC50 of 6.00 to 7.00.
Same read-out and setting: in the case of `CC1CCc2sc(NC(=O)NCc3c(Br)sc4c3CCNC4)c(C(=O)OC(C)(C)C)c2C1` (stereo not drawn) [Compound 234] it was > 7.00.
The same measure, in the same setting: in the case of `C#CCN1CCc2c(sc(-n3cccc3)c2CNC(=O)Nc2sc3c(c2C(=O)OC(C)(C)C)CCCC3)C1` [Compound 325] it was > 7.00; in that of `CCOC(=O)c1c(NC(=O)NCc2csc3c2CCCC3)sc2c1CCCC2` [Compound 35], > 7.00.
The same measure, in the same setting: in the case of `CCN1CCc2c(sc(-n3cccc3)c2NC(=O)Nc2sc3c(c2C(=O)OC(C)(C)C)CCCC3)C1` [Compound 105] it was 5.00 to 6.00; in that of `CCOC(=O)c1c(NC(=O)NCc2c(C(F)(F)F)sc3c2CCN(C(=N)N)C3)sc2c1CCCC2` [Compound 341], > 7.00; in that of `CC1CCc2sc(NC(=O)NCc3c(C(F)(F)F)sc4c3CCNC4)c(C(=O)OC(C)(C)C)c2C1` (stereo not drawn) [Compound 233], > 7.00.
For `CN1CCN(C(=O)c2c(NC(=O)NCc3c(-n4cccc4)sc4c3CCNC4)sc3c2CCCC3)CC1` [Compound 84], the pEC50 is 5.00 to 6.00.
Still for that read-out and setting: under `Cc1sc(NC(=O)C(=O)NCc2c(-n3cccc3)sc3c2CCNC3)c(C(=O)OC(C)(C)C)c1C` [Compound 361] stands 6.00 to 7.00.
As to `CCOC(=O)c1c(NC(=O)NCc2c(C(F)(F)F)sc3c2CCNC3)sc2c1C(C)CCC2` (stereo not drawn) [Compound 190], the pEC50 was > 7.00.
Regarding `CC(C)N1CCc2c(sc(Br)c2CNC(=O)Nc2sc3c(c2C(=O)OC(C)(C)C)CCCC3)C1` [Compound 187], the pEC50 is > 7.00.
The same measure, in the same setting: under `CCc1c(C)sc(NC(=O)NCc2c(C(F)(F)F)sc3c2CCNC3)c1C(=O)OC(C)(C)C` [Compound 268] stands > 7.00.
The same measure, in the same setting: under `CCOC(=O)c1c(NC(=O)NCc2c(C(F)(F)F)sc3c2CCNC3)sc2c1CCOC2` [Compound 150] stands > 7.00; under `CCOC(=O)c1c(NC(=O)NCc2csc(CN(C)C)c2C)sc2c1CCCC2` [Compound 188], > 7.00.
The same measure, in the same setting: under `CCc1c(C)sc(NC(=O)NCc2c(-n3cccc3)sc3c2CCNC3)c1C(=O)OC(C)(C)C` [Compound 269] stands > 7.00; under `CC(C)(C)OC(=O)c1c(NC(=O)NCc2c(-c3cccc(Cl)c3)sc3c2CCNC3)sc2c1CCCC2` [Compound 180], > 7.00; under `CC(C)(C)OC(=O)c1c(NC(=O)NCc2c(-n3cccc3)sc3c2CCN(CCF)C3)sc2c1CCCC2` [Compound 242], > 7.00.
In the case of `CC1CCCc2sc(NC(=O)NCc3c(Br)sc4c3CCNC4)c(C(=O)OC(C)(C)C)c21` (stereo not drawn) [Compound 290], the pEC50 was > 7.00.
Same read-out and setting: under `CC(C)N1CCc2c(sc(C(F)(F)F)c2CNC(=O)Nc2sc3c(c2C(=O)OC(C)(C)C)CCCC3)C1` [Compound 186] stands > 7.00; under `CCOC(=O)c1cc(-c2ccccc2)sc1NC(=O)NCc1c(-n2cccc2)sc2c1CCN(CC)C2` [Compound 40], 6.00 to 7.00.
Same read-out and setting: under `O=C(NCc1c(C(F)(F)F)sc2c1CCNC2)Nc1sc2c(c1C(=O)OC1CCOC1)CCCC2` (stereo not drawn) [Compound 326] stands > 7.00; under `CCN1CCc2c(sc(-n3cccc3)c2CNC(=O)Nc2sc3c(c2C(=O)OC(C)(C)C)CC(C)CC3C)C1` (stereo not drawn) [Compound 294], > 7.00.
Still for that read-out and setting: under `CC(C)(C)OC(=O)c1c(NC(=O)NCc2c(Br)sc3c2CCNC3)sc2c1CCC2` [Compound 224] stands > 7.00.
For the compound `O=C(NCc1c(-c2ccoc2)sc2c1CCNC2)Nc1sc2c(c1C(=O)OC1CCOC1)CCOC2` (stereo not drawn) [Compound 337], the pEC50 was > 7.00.
The same measure, in the same setting: in the case of `CCN1CCc2c(sc(-n3cccc3)c2CNC(=O)Nc2ccccc2)C1` [Compound 8] it was < 5.00.
Same read-out and setting: in the case of `CCOC(=O)c1c(NC(=O)NCc2c(Br)sc3c2CCNC3)sc2c1CCCC2` [Compound 81] it was > 7.00; in that of `CC(C)(C)OC(=O)c1ccsc1NC(=O)NCc1c(C(F)(F)F)sc2c1CCNC2` [Compound 343], 6.00 to 7.00.
With `CC(C)(C)OC(=O)c1c(NC(=O)NCc2c(Br)sc3c2CCNC3)sc2c1CCCCC2` [Compound 225], the pEC50 was > 7.00.
Same read-out and setting: under `C=CCCOC(=O)c1c(NC(=O)NCc2c(Br)sc3c2CCNC3)sc2c1CCCC2` [Compound 274] stands > 7.00; under `CCOC(=O)c1c(NC(=O)NCc2c(-n3cccc3)sc3c2CCNC3)sc(C)c1C` [Compound 70], 6.00 to 7.00.
